Test results as given in patent publication US7186861B2 (priority 2002, dated 2007).

System: Plasmopara viticola
Test: Activity against downy mildew of grapes caused by Plasmopara viticola (lasting effect, inoculation 7 days after spraying)
Assay type: in vivo
Conditions: 63 ppm active compound; potted vines Müller-Thurgau; inoculated 7 days after spraying; untreated plants 90% infected
Procedure: The active compounds were prepared, separately or together, as a 10% emulsion in a mixture of 70% by weight of cyclohexanone, 20% by weight of Nekanil® LN (Lutensol® AP6, wetting agent with an emulsifying and dispersing action based on ethoxylated alkylphenols) and 10% by weight of Wettol® EM (nonionic emulsifier based on ethoxylated castor oil) and were appropriately diluted with water to the desired concentration.
Leaves of potted vines of the variety “Müller-Thurgau” were sprayed to runoff point with an aqueous preparation of active compound prepared from a stock solution consisting of 10% of active compound, 85% of cyclohexanone and 5% of emulsifier. In order to be able to assess the lasting effects of the substances, the plants, after the spray coating had dried on, were placed in a greenhouse for 7 days. Only then were the leaves inoculated with an aqueous suspension of zoospores of Plasmopara viticola. The vines were then initially placed in a chamber saturated with water vapor at 24° C. for 48 hours and subsequently in a greenhouse at temperatures of between 20 and 30° C. for 5 days. After this period of time, the plants were once more placed in a humid chamber for 16 hours to accelerate the eruption of sporangiphores. The extent to which the infection had developed on the undersides of the leaves was then determined visually.

| SMILES | infection |
| --- | --- |
| CC/C=C(/C(=O)NCCc1ccc(OCC)c(OC)c1)c1ccc(Cl)c(Cl)c1 [compound A] | 40% |
| CCC=C(C(=O)NCCc1ccc(OCC)c(OC)c1)c1ccc(Cl)c(Cl)c1 [Compound I-44] | 3% |
